Patent publication US6630510B1, “Substituted succinic acid metallo-β-lactamase inhibitors and their use in treating bacterial infections” (priority 1999, dated 2003)

Tests used:
[1] = tested on: E. coli BL21(DE3)/pET30a-IMP-1; assay: Carbapenem sensitivity (MIC) of E. coli expressing IMP-1; format: cell-based; conditions: for fold reduced sensitivity resulting from basal (uninduced) IMP-1 expression: pET30a-IMP-1 introduced into E. coli BL21(DE3)
Source text: A laboratory strain of E.coli engineered to express IMP-1 was used to evaluate the ability of succinate derivatives to reverse metallo-β-lactamase-mediated carbapenem resistance in bacteria. Native IMP-1, which included the N-terminal periplasmic signal sequence, was PCR amplified from […] isolated from a carbapenem resistant P. aeruginosa clinical isolate, CL56673, and cloned into the pET30a vector. […] To evaluate IMP-1 inhibitors, an overnight culture of E. coli BL2(DE3)/pET30a-IMP-1, grown 35° C. in LB broth (Difco) or Mueller Hinton broth (BBL) supplemented with kanamycin ([…]), was diluted to a final concentration of ˜10^5 cells/ml in Mueller Hinton broth (BBL) containing a subinhibitory concentration (0.25×MIC) of the carbapenem, (1S,5R,6S)-1-methyl-2-{7-[4-(aminocarbonylmethyl)-1,4-diazoniabicyclo(2.2.2)octan-1-yl]methyl-fluoren-9-on-3-yl}-6-(1R-hydroxyethyl)carbapen-2-em-3-carboxylate chloride. Various concentrations of IMP-1 inhibitor were added to the bacterial growth medium and their capacity to effect a four-fold or greater increase in sensitivity to the carbapenem was monitored.

E. coli BL21(DE3) = assay: Carbapenem MIC in E. coli without IMP-1 expression; format: cell-based; conditions: without expression of IMP-1

In the case of `C[C@@H](O)[C@H]1C(=O)N2C(C(=O)O)=C(SCCN=CN)C[C@H]12` [impenem, imipenem, reference compound], the “fold reduced sensitivity resulting from basal (uninduced) IMP-1 expression” value (shortened to “fold reduced sensitivity resulting”) [1] is reported as 4 fold.

`C[C@@H](O)[C@H]1C(=O)N2C(C(=O)O)=C(S[C@@H]3CN[C@H](C(=O)N(C)C)C3)[C@H](C)[C@H]12` [meropenem, reference compound] was tested, and the “fold reduced sensitivity resulting” value [1] was 64 fold.

For “(1S,5R,6S)-1-methyl-2-{7-[4-(aminocarbonylmethyl)-1,4-diazoniabicyclo(2.2.2)octan-1-yl]methyl-fluoren-9-on-3-yl}-6-(1R-hydroxyethyl)-carbapen-2-em-3-carboxylate chloride”, the “fold reduced sensitivity resulting” value [1] was 500 fold, the “minimum inhibitory concentration (MIC)” value ([1]; with expression of IMP-1) was 16 to 32 µg/mL and the “minimum inhibitory concentration (MIC)” value (E. coli BL21(DE3)) was 0.06 to 0.12 µg/mL.
